Columns and labels:
Format in all cases: cell-based
[1] = test system: tyrosine aminotransferase (TAT) mRNA expression; assay: Tyrosine aminotransferase (TAT) mRNA expression in vitro assay in human primary hepatocytes; settings: 18 hr, human cryopreserved primary hepatocytes, versus DMSO control, 2^-ΔΔCt, range and n in brackets
Protocol: The impact of test compounds on hyperglycemic events were assessed by looking at changes in mRNA expression of the gene encoding tyrosine aminotransferase (TAT), which is under direct regulation of the glucocorticoid receptor in human hepatocytes.
Human cryopreserved primary hepatocytes (BioreclamationIVT, M00995-P lot EPB) were plated to 24-well collagen I-coated plates (Becton Dickinson, 354408). Cells were allowed to attach for 4 hr before being challenged with test compounds overnight (18 hr). Cells were harvested and total RNA isolated using RNeasy Plus Mini Kit (Qiagen, 74136) followed by cDNA synthesis using High Capacity cDNA reverse transcription kit (Applied Biosystems, 4368813). Real-time RT PCR was performed on an Applied Biosystems 7500 PCR cycler, using Taqman primers for TAT (Life technologies, Hs00356930_ml) and the reference gene hypoxanthine phosphoribosyltransferase 1 (Life technologies, Hs99999909_ml).
Human cryopreserved primary hepatocytes were transferred in to pre-warmed (37° C.) plating medium (BioreclamationIVT, Z990003) and diluted to 0.7×10^6 viable cells/mL. […] Real-time RT PCR was carried out using TaqMan reagents (Life technologies) on the 7500 PCR cycler, and Ct-values for TAT gene expression was normalised to the control gene and expressed as fold change compared to DMSO control using the 2^−ΔΔCt method.

[2] = test system: release of TNFα from whole blood stimulated with LPS; assay: In vitro human whole blood: inhibition of TNFα release after LPS stimulation; settings: LPS 30 μg/mL, 18 hr, read-out: TNFα pIC50 (converted)
Protocol: The anti-inflammatory activity of compounds and prednisolone was determined in vitro by their ability to inhibit the release of TNFα from whole blood stimulated with LPS. Venous blood from human donors was collected and anti-coagulated with sodium heparin and transferred to a sterile polystyrene round bottomed plate (Corning) at 190 μL per well.
Compounds were prepared from 10 mM stock solutions in dimethylsulfoxide (DMSO, Sigma) by serially diluting 1/3 in DMSO to produce a master plate with the top concentration at 3.33 mM and the lowest concentration at 0.1 μM. Compounds from the master plate were added to the blood at 1 μL/well (1/200) dilution to give final concentrations ranging between […] and 0.5 nM. Control wells received 1 μL DMSO only and the final DMSO concentration in all wells was 0.5%. […]
TNFα protein levels were determined using an AlphaLISA hTNFα kit (Perkin Elmer) according to the manufacturer's instructions. […] The samples were read at 615 nm with excitation at 680 nm using an Envision plate reader. TNFα in the samples was determined by extrapolation from the standard curve and expressed as pg/mL.
The % inhibition of TNFα was determined by the equation: % inhibition=(1−(A−B)/(C−B))×100 Here, A=TNFα in LPS stimulated samples containing compound, B=TNFα in unstimulated samples. and C=TNFα in LPS stimulated samples without compound. […]

[3] = biological target: T1, human glucocorticoid receptor (GR) (Homo sapiens, UniProt P04150); assay: GRE Antagonist Assay (ChagoK1 18:7:2 s4/GRE reporter cell line, dexamethasone pre-stimulated); settings: ChaGo-K-1, relative to full antagonist effect of Mifepristone (RU486), read-out: TA antagonist Observed max Effect at 1 μM (%)
T1 construct: endogenous in cells; host or cells: ChagoK1 18:7:2 s4/GRE (human bronchogenic carcinoma ChaGo K1, ATCC HTB 168, stably carrying MMTV-GRE-LacZ reporter)
T1 sequence (P04150 1-777): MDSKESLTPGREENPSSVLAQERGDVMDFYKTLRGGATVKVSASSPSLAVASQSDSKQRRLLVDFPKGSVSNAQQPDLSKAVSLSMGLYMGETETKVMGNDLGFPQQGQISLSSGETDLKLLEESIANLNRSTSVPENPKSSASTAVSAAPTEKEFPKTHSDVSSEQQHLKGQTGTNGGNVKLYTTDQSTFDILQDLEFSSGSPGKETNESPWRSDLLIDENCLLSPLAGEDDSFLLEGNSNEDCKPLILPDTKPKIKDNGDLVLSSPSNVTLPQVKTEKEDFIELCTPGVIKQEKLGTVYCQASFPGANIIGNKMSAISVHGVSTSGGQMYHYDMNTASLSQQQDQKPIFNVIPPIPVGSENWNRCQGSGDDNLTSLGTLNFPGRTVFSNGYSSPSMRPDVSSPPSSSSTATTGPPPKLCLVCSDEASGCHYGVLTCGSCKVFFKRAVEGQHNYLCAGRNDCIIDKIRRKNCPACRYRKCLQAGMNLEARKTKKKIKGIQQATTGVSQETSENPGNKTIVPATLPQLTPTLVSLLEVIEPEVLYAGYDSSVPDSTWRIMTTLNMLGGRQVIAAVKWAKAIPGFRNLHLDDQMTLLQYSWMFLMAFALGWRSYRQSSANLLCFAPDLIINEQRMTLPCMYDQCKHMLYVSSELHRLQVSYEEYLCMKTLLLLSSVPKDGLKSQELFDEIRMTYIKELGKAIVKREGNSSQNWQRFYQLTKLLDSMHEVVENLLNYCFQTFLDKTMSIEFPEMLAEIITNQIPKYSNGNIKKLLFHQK
Excerpt: (§1) A reporter cell line (ChagoK1 18:7:2 s4/GRE) was established by stable transfection of the human bronchogenic carcinoma celline, ChaGo K1 (ATCC: HTB 168) with a MMTV-GRE-LacZ reporter construct. The generated cell line allows for identification of compounds showing antagonist activity at the human glucocorticoid receptor (GR) via reduction of LacZ gene expression. Dexamethasone-activated GR binds to the Glucocorticoid Response Element (GRE) in the promoter of the LacZ gene and transcription is initiated. Antagonistic properties of compounds are assessed as beta-galactosidase intensity reduction from pre-stimulation with dexamethasone through a colour reaction (change in absorbance).
Cryo-preserved ChagoK1 18:7:2 s4/GRE cells were suspended in RPMI medium with 10% FBS, 1% NEAA and 1% sodium pyruvate, and seeded as 50000 cells/200 ul/well in 96-well plates and cultured at 37° C. with 5% CO2 and 95% humidity for 24 hr. Cells were pre-stimulated with 2 μl dexamethasone (70 nM final conc) for 4-5 hr, before addition of 1 μl compound at different concentrations and incubation for an additional 24 hr. […] The plates were measured at 420 nm for absorbance in a SpectraMax reader (Molecular Device).
The relative efficacy (% effect) of a compound is calculated based on the full antagonist effect of the reference compound Mifepristone (RU486): % Effect=((Sample abs−min abs)/(max abs−min abs))×100 […]

[4] = biological target: T1, human glucocorticoid receptor (GR); assay: GRE Agonist Assay (ChagoK1 18:7:2 s4/GRE MMTV-GRE-LacZ reporter cell line)
Excerpt: as §1, with “cell line,” for “celline,”, “agonist” for “antagonist”, “induction” for “reduction”, “Ligand-activated” for “Dexamethasone-activated”, “The resulting” for “Antagonistic properties of compounds are assessed as”, “activity is measured” for “intensity reduction from pre-stimulation with dexamethasone”
Cryo-preserved ChagoK1 18:7:2 s4/GRE cells were suspended in RPMI medium with 10% FBS, 1% NEAA and 1% sodium pyruvate, and seeded as 50000 cells/200 ul/well in 96-well plates and cultured at 37° C. with 5% CO2 and 95% humidity for 24 hours. 1 μl compound was added at different concentrations to the cells and incubated for another 24 hours. Cells were washed once in PBS and lysed with 50 al of 0.1% Triton-X for 10 min at room temperature. […] The plates were measured at 420 nm for absorbance in a SpectraMax reader (Molecular Device).
The relative efficacy (% effect) of a compound is calculated based on the full agonist effect of dexamethasone: % Effect=((Sample abs−min abs)/(max abs−min abs))×100 […]

Row | IC50 [2] | Emax at 1 µM [3] | Emax at 1 µM ([4]; ChaGo-K-1, at 1 μM, relative to full agonist effect of dexamethasone, read-out: TA agonist Observed max Effect at 1 μM (%)) | EC50 ([4]; transactivation, agonist mode, 24 h incubation, read-out: TA agonist pEC50 (converted)) | SMILES | Fold Change Tyrosine Aminotransferase Gene Expression Relative to Control (1 μM) [1]
1 | 316 nM | – | – | – | C[C@]12C=CC(=O)C=C1CC[C@@H]1[C@@H]2[C@@H](O)C[C@@]2(C)[C@H]1CC[C@]2(O)C(=O)CO [Prednisolone, reference compound] | 2.5 (1.4-4.2, n = 8)
2 | 631 nM | 70% | 39% | 12.6 nM | CC(C)[C@H](NC(=O)C(C)(F)F)[C@H](Oc1ccc2c(cnn2-c2ccc(=O)n(C)c2)c1)c1ccccc1 [Example 1, 2,2-difluoro-N-[(1R,2S)-3-methyl-1-{[1-(1-methyl-6-oxo-1,6-dihydropyridin-3-yl)-1H-indazol-5-yl]oxy}-1-phenylbutan-2-yl]propanamide] | –
